Experimental data published in patent US20170189366A1, “METHOD FOR TREATING DISORDERS RELATED TO COMPLEMENT ACTIVATION” (CASE WESTERN RESERVE UNIVERSITY, priority 2006, published 2017).

How the values were obtained:
[1] = system: C3b activation on RPE-43 cell line; assay: Alternative pathway-dependent amplification of complement activation on C3b-seeded RPE-43 cell line; format: cell-based; settings: after addition of C3, factor B, factor D, factor H, read-out: inhibition of further C3b activation
Description: FIGS. 1A-C are a series of graphs showing the ability of an amidine compound according to the present invention to inhibit alternative pathway-dependent amplification of C3 cleavage. In FIG. 1A, factor B, factor D, and C3 were mixed in the absence or presence of increasing concentrations of the amidine compound and generation of C3a was quantified by ELISA. In FIG. 1B, factor B, factor D, C3, and a limiting amount of factor H were mixed in the absence or presence of two doses of the amidine compound following initial deposition of C3b on Bruch's membrane via anti-CEP initiated classical pathway activation. In FIG. 1C, factor B, factor D, C3, and a limiting amount of factor H were mixed in the absence or presence of two doses of the amidine compound following initial deposition of C3b on the RPE-43 cell line by anti-class I monomorphic antibody; and To determine how effective FUT-175 is in preventing alternative pathway-dependent amplification of complement activation on Bruch's membrane and RPE cells, we seeded purified Bruch's membrane from an AMD patient and the RPE-43 cell line with C3b (as would occur with anti-CEP autoantibodies) by sensitization with anti-CEP and anti-HLA monomorphic monoclonal antibodies, respectively, followed by incubation with purified C1, C4, C2, and decay of C1 and C2. […]

[2] = system: laser-induced choroidal neovascularization; assay: Murine laser-induced CNV model; format: in vivo, mouse; settings: i.p. injection
Description: FIGS. 2A-B are a series of flat mounts showing the effects on lesion size of the amidine compound in a laser-induced CNV mouse model.
As part of our exploration of different strategies for inhibiting complement activation intraocularly so as to arrive at what methodology could be most efficacious for treating AMD patients clinically, we utilized the standard murine CNV model and analyzed the effect of an i.p. injection of FUT-175. As shown diagrammatically in FIGS. 2A-B, the drug reduced lesion size by >80%.

## N=C(N)Nc1ccc(C(=O)Oc2ccc3cc(C(=N)N)ccc3c2)cc1 [FUT-175, 6-amidino-2-napthyl-4-guanidinobenzoate dimethanesulfonate]
[1]
  inhibition at 0.3 µM: ~50%
[2]
  reduction of lesion size: > 80%
